The record followed here is patent US8501783B2, “Conformationally restricted urea inhibitors of soluble epoxide hydrolase” (The Regents of the University of California, priority 2006, dated 2013).

As usually defined, the IC50 is the concentration at which inhibition is half-maximal. For orientation: AUC means concentration integrated over time. A low value points to low exposure.

In one data set the target is human sEH (Homo sapiens (Human), UniProt P34913). As to the kind of experiment: Inhibition of human soluble epoxide hydrolase (IC50; one of three substrate methods).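 Note: enzyme expressed in baculovirus and affinity-purified, assays run in triplicate, with substrate and read-out differing among the three methods.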 Format: biochemical.
Data set [1] is described as follows: Pharmacokinetic screening in dogs, oral administration, plasma LC-MS/MS. Particulars: dog, plasma, po, 0.3 mg/kg.

Like-named read-outs stand apart in the source and are kept apart here.

Sequence of human sEH (P34913 whole entry): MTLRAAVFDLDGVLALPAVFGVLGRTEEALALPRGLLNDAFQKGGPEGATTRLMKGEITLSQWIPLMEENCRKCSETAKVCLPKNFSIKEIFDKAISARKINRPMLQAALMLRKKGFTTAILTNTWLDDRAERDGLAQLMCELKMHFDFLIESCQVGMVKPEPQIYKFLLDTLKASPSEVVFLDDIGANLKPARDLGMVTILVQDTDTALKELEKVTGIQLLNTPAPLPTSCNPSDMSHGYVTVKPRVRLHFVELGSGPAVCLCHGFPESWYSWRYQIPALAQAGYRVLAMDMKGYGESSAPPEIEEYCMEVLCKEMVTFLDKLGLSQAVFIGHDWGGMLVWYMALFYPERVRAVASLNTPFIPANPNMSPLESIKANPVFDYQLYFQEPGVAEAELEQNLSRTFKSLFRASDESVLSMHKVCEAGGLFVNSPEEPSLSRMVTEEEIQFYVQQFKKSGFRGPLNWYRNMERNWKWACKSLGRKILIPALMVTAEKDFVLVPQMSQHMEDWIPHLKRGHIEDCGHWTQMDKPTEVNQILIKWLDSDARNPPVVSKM

As for `CCCC(=O)N1CCC(CNC(=O)NC23CC4CC(CC(C4)C2)C3)CC1` [Compound 1120, N-((1-butyrylpiperidin-4-yl)methyl)-N′-(adamant-1-yl)urea], on human sEH (recombinant human sEH), the IC50 is 6.7 nM.
In data set [1], `CC(=O)N1CCC(CNC(=O)NC23CC4CC(CC(C4)C2)C3)CC1` [Compound 1156, N-((1-acetylpiperidin-4-yl)methyl)-N′-(adamant-1-yl)urea] showed an exposure (AUC) of 0.0817 µM·h.
Take `CCC(=O)N1CCC(CNC(=O)NC23CC4CC(CC(C4)C2)C3)CC1` [Compound 1162, N-((1-propanoylpiperidin-4-yl)methyl)-N′-(adamant-1-yl)urea]: the IC50 at human sEH (recombinant human sEH) came out at 8.7 nM.
On the same count and under the same terms, the same measure for `COC(=O)c1ccccc1C(=O)N1CCC(NC(=O)NC23CC4CC(CC(C4)C2)C3)CC1` [Compound 1202, 2-[4-(3-Adamantan-1-yl-ureido)-piperidine-1-carbonyl]-benzoic acid methyl ester]: 1.7 nM.
Compound `COC(=O)c1cccc(C(=O)N2CCC(NC(=O)NC34CC5CC(CC(C5)C3)C4)CC2)c1` [Compound 1203, 3-[4-(3-Adamantan-1-yl-ureido)-piperidine-1-carbonyl]-benzoic acid methyl ester] gave a concentration for half-maximal inhibition (IC50) against human sEH of 1.1 nM.
The same measure, in the same setting: the same measure for `COC(=O)CCC(=O)N1CCC(NC(=O)NC23CC4CC(CC(C4)C2)C3)CC1` [Compound 1205, 4-[4-(3-Adamantan-1-yl-ureido)-piperidin-1-yl]-4-oxo-butanoic acid methyl ester]: 9 nM.
In the case of `O=C(NCC1CCN(C(=O)c2ccccn2)CC1)NC12CC3CC(CC(C3)C1)C2` [Compound 1207], on human sEH (recombinant human sEH), the IC50 came out at 7.6 nM.
Same read-out and setting: under `COC(=O)CCC(=O)N1CCC(CNC(=O)NC23CC4CC(CC(C4)C2)C3)CC1` [Compound 1208, 4-{4-[(3-Adamantan-1-yl-ureido)-methyl]-piperidin-1-yl}-4-oxo-butanoic acid methyl ester] stands 6.2 nM; under `COC(=O)c1cccc(C(=O)N2CCC(CNC(=O)NC34CC5CC(CC(C5)C3)C4)CC2)c1` [Compound 1209, 3-{4-[(3-Adamantan-1-yl-ureido)-methyl]-piperidine-1-carbonyl}-benzoic acid methy ester], 4.1 nM.
Turning to `COC(=O)c1ccccc1C(=O)N1CCC(CNC(=O)NC23CC4CC(CC(C4)C2)C3)CC1` [Compound 1210, 2-{4-[(3-Adamantan-1-yl-ureido)-methyl]-piperidine-1-carbonyl}-benzoic acid methy ester], the IC50 at human sEH (recombinant human sEH) is 1.8 nM.
Same read-out and setting: under `COC(=O)c1ccc(C(=O)N2CCC(CNC(=O)NC34CC5CC(CC(C5)C3)C4)CC2)cc1` [Compound 1211, 4-{4-[(3-Adamantan-1-yl-ureido)-methyl]-piperidine-1-carbonyl}-benzoic acid methyl ester] stands 1.5 nM; under `COC(=O)CCCC(=O)N1CCC(CNC(=O)NC23CC4CC(CC(C4)C2)C3)CC1` [Compound 1212, 5-{4-[(3-Adamantan-1-yl-ureido)-methyl]-piperidin-1-yl}-5-oxo-pentanoic acid methyl ester], 3.4 nM.
For the compound `O=C(NC1CCN(C(=O)c2ccncc2)CC1)NC12CC3CC(CC(C3)C1)C2` [Compound 1433, N-(1-(pyridine-4-carbonyl)piperidin-4-yl)-N′-(adamant-1-yl)urea], at human sEH, inhibition was half-maximal at 1.7 nM (IC50).
On the same count and under the same terms, the same measure for `O=C(NC1CCN(C(=O)c2cccnc2)CC1)NC12CC3CC(CC(C3)C1)C2` [Compound 1434, N-(1-(Pyridine-3-carbonyl)piperidin-4-yl)-N′-(adamant-1-yl)urea]: 2.1 nM.
`O=C(NCC1CCN(C(=O)c2ccncc2)CC1)NC12CC3CC(CC(C3)C1)C2` [Compound 1435]: the half-maximal inhibitory concentration (IC50) on human sEH (recombinant human sEH) came out at 5.4 nM.
The same measure, in the same setting: the same measure for `O=C(NCC1CCN(C(=O)c2cccnc2)CC1)NC12CC3CC(CC(C3)C1)C2` [Compound 1436, N-((1-(pyridine-3-carbonyl)piperidin-4-yl)methyl)-N′-(adamant-1-yl)urea]: 7.3 nM.
Still for that read-out and setting: the same measure for `O=C(O)CCCC(=O)N1CCC(CNC(=O)NC23CC4CC(CC(C4)C2)C3)CC1` [Compound 1500, 5-{4-[(3-Adamantan-1-yl-ureido)-methyl]-piperidin-1-yl}-5-oxo-pentanoic acid]: 41.6 nM.
For `O=C(O)CCCC(=O)N1CCC(NC(=O)NC23CC4CC(CC(C4)C2)C3)CC1` [Compound 1501, 5-[4-(3-Adamantan-1-yl-ureido)-piperidin-1-yl]-5-oxo-pentanoic acid], the concentration for half-maximal inhibition (IC50) at human sEH came to 72.8 nM.
For `O=C(O)CCC(=O)N1CCC(CNC(=O)NC23CC4CC(CC(C4)C2)C3)CC1` [Compound 1502, 4-{4-[(3-Adamantan-1-yl-ureido)-methyl]-piperidin-1-yl}-4-oxo-butanoic acid], the 50% inhibitory concentration (IC50) at human sEH (recombinant human sEH) is 174 nM.
The same measure, in the same setting: the same measure for `O=C(O)CCC(=O)N1CCC(NC(=O)NC23CC4CC(CC(C4)C2)C3)CC1` [Compound 1503, 4-[4-(3-Adamantan-1-yl-ureido)-piperidin-1-yl]-4-oxo-butanoic acid]: 254 nM; for `O=C(NCC1CCN(C(=O)c2cccc(C(=O)O)c2)CC1)NC12CC3CC(CC(C3)C1)C2` [Compound 1504, 3-{4-[(3-Adamantan-1-yl-ureido)-methyl]-piperidine-1-carbonyl}-benzoic acid]: 43.6 nM.
On to `O=C(NC1CCN(C(=O)c2cccc(C(=O)O)c2)CC1)NC12CC3CC(CC(C3)C1)C2` [Compound 1505, 3-[4-(3-Adamantan-1-yl-ureido)-piperidine-1-carbonyl]-benzoic acid], for which the IC50 against human sEH was determined as 10.1 nM.
In the case of `O=C(NCC1CCN(C(=O)c2ccccc2C(=O)O)CC1)NC12CC3CC(CC(C3)C1)C2` [Compound 1506, 2-{4-[(3-Adamantan-1-yl-ureido)-methyl]-piperidine-1-carbonyl}-benzoic acid], the 50% inhibitory concentration (IC50) at human sEH (recombinant human sEH) came out at 407 nM.
Regarding `O=C(NC1CCN(C(=O)c2ccccc2C(=O)O)CC1)NC12CC3CC(CC(C3)C1)C2` [Compound 1507, 2-[4-(3-Adamantan-1-yl-ureido)-piperidine-1-carbonyl]-benzoic acid], on human sEH, inhibition was half-maximal at 161 nM (IC50).
For `O=C(NCC1CCN(C(=O)c2ccc(C(=O)O)cc2)CC1)NC12CC3CC(CC(C3)C1)C2` [Compound 1522, 4-{4-[(3-Adamantan-1-yl-ureido)-methyl]-piperidine-1-carbonyl}-benzoic acid], the IC50 at human sEH (recombinant human sEH) amounted to 11.8 nM.
On to `O=C(NC1CCN(C(=O)c2ccc(C(=O)O)cc2)CC1)NC12CC3CC(CC(C3)C1)C2` [Compound 1523, 4-[4-(3-Adamantan-1-yl-ureido)-piperidine-1-carbonyl]-benzoic acid], for which, on human sEH, the midpoint of inhibition, the IC50, lay at 3.3 nM.
Regarding `O=C(NC1CCCCC1)NC12CN3CN(CN(C3)C1)C2` [Compound 1549, 1-Cyclohexyl-3-(1,3,5-triaza-tricyclo[3.3.1.1^3.7]dec-7-yl)-urea], on human sEH (recombinant human sEH), the concentration for half-maximal inhibition (IC50) worked out at 13600 nM.
On the same count and under the same terms, under `CCCCCCCCCCCCNC(=O)NC1CCNCC1` [Compound 1550, 1-Dodecyl-3-piperidin-4-yl-urea] stands 42.5 nM; under `CC(C)(C)OC(=O)N1CCC(NC(=O)NC2CCCCC2)CC1` [Compound 1551, 4-(3-Cyclohexyl-ureido)-piperidine-1-carboxylic acid tert-butyl ester], 4.3 nM.
Take `CCCCCCCCCCCCNC(=O)Nc1ccc2[nH]ccc2c1` [Compound 1553, 1-Dodecyl-3-(1H-indol-5-yl)-urea]: on human sEH (recombinant human sEH), the IC50 is 639 nM.
In the case of `O=C(Nc1ccc2[nH]ccc2c1)NC1CCCCC1` [Compound 1554, 1-Cyclohexyl-3-(1H-indol-5-yl)-urea], on human sEH (recombinant human sEH), the half-inhibitory concentration (IC50) came out at 87 nM.
Still for that read-out and setting: the same measure for `O=C(NCC1CCN(C(=O)C(F)(F)F)CC1)NC12CC3CC(CC(C3)C1)C2` [Compound 1556]: 1.8 nM; for `O=C(NCc1ccncc1)Oc1cccc(-c2ccccc2)c1` [Compound 1557, Pyridin-4 ylmethyl-carbamic acid biphenyl-3-yl ester]: 11500 nM.
On the same count and under the same terms, the same measure for `Cc1c(COC(=O)NCc2ccncc2)cccc1-c1ccccc1` [Compound 1558, Pyridin-4-ylmethyl-carbamic acid 2-methyl-biphenyl-3-ylmethyl ester]: 1330 nM; for `O=C(NCc1cccnc1)Oc1cccc(-c2ccccc2)c1` [Compound 1559, Pyridin-3-ylmethyl-carbamic acid biphenyl-3-yl ester]: 23000 nM.
The same measure, in the same setting: under `Cc1c(COC(=O)NCc2cccnc2)cccc1-c1ccccc1` [Compound 1560, Pyridin-3-ylmethyl-carbamic acid 2-methyl-biphenyl-3-ylmethyl ester] stands 4410 nM; under `O=C(Oc1cccc(-c2ccccc2)c1)N1CCOCC1` [Compound 1561, Morpholine-4-carboxylic acid biphenyl-3-yl ester], 65300 nM; under `CCCCCCCCCCCCNC(=O)Nc1ccc2[nH]cnc2c1` [Compound 1568, 1-(1H-Benzoimidazol-5-yl)-3-dodecyl-urea], 5020 nM.
In the case of `O=C(Nc1ccc2[nH]cnc2c1)NC1CCCCC1` [Compound 1569, 1-(1H-Benzoimidazol-5-yl)-3-cyclohexyl-urea], the half-maximal inhibitory concentration (IC50) on human sEH (recombinant human sEH) came to 457 nM.
Same read-out and setting: the same measure for `O=C(Nc1ccc(OC(F)(F)F)cc1)NC1CCNCC1` [Compound 1570, 1-Piperidin-4-yl-3-(4-trifluoromethoxy-phenyl)-urea]: 2320 nM; for `O=C(Nc1ccc(OC(F)(F)F)cc1)NC1CCN(C(=O)C(F)(F)F)CC1` [Compound 1591, 1-[1-(2,2,2-Trifluoro-acetyl)-piperidin-4-yl]-3-(4-trifluoromethoxy-phenyl)-urea]: 0.4 nM; for `O=C(NC1CCCCC1)NC1CCNCC1` [Compound 1602]: 562 nM.
Same read-out and setting: the same measure for `O=C(NC1CCNCC1)NC1CCNCC1` [Compound 1604, 1,3-Di-piperidin-4-yl-urea]: 100000 nM; for `O=C(NC1CCN(C(=O)c2ccccc2)CC1)NC1CCN(C(=O)c2ccccc2)CC1` [Compound 1605, 1,3-Bis-(1-benzoyl-piperidin-4-yl)urea]: 4.8 nM.
As for `CC(=O)N1CCC(NC(=O)C23CC4CC(CC(C4)C2)C3)CC1` [Compound 1641, Adamantane-1-carboxylic acid (1-acetyl-piperidin-4-yl)-amide], the half-inhibitory concentration (IC50) at human sEH (recombinant human sEH) amounted to 12600 nM.
